Source: PMC11672547, “Combination of Coevolutionary Information and Supervised Learning Enables Generation of Cyclic Peptide Inhibitors with Enhanced Potency from a Small Data Set” (ACS Central Science, 2024)
Numbered stars: 1 amine (or outer) side, 2 acyl side, 3 side chain; on linkers, the order of the positions; unused ones are H or OH. Bridge positions count the residues as written; N and C are the ends. Peptide text beside a SMILES is read from it. TBMB = c1c(C[*:1])cc(C[*:3])cc1C[*:2]

biological target: T1, murine uPA (muPA) (Mus musculus, UniProt P06869); test: Specificity determination, residual protease activity (fluorogenic substrate); assay type: biochemical; conditions: 25 °C, pH 7.4, Z-Gly-Gly-Arg-AMC 50 μM
T1 construct: mouse uPA (MUPA-LMW,; purchased Molecular Innovations MUPA-LMW
Protocol: 5% v/v DMSO. Final concentrations of serine proteases were the following: human uPA (UPA-LMW, Molecular Innovations, Novi, MI, USA) 1.5 nM, mouse uPA (MUPA-LMW, Molecular Innovations, Novi, MI, USA) 12 nM, human tPA (HTPATC; Molecular Innovations, Novi, MI, USA) 7.5 nM, mouse tPA (MTPA, Molecular Innovations, Novi, MI, USA) 6 nM, human trypsin (HTRYP, Molecular Innovations, Novi, MI, USA) 0.05 nM, human plasmin (HPLM, Molecular Innovations, Novi, MI, USA) 1.5 nM, human plasma kallikrein (IHPKA, Innovative Research, Novi, MI, USA) 0.5 nM, human thrombin (IHT, Innovative Research, Novi, MI, USA) 10 nM, and human factor XIIa (IHFXIIa, Innovative Research, Novi, MI, USA) 6 nM. Two-fold dilutions of UK970 bicyclic peptide inhibitor were prepared ranging from 1 mM to 125 nM for all the proteases. For human uPA an extra two-fold UK970 inhibitor dilution experiment was performed by using inhibitor concentrations ranging from 2000 nM to 0.12 nM. For the determination of the Ki inhibitory constants, the following fluorogenic substrates were used at final concentration of 50 μM: Z-Gly-Gly-Arg-AMC (for human uPA, murine uPA, human tPA, murine tPA, human trypsin, human thrombin and human factor XIIa; Bachem, Bubendorf, Switzerland), Z-Phe-Arg-AMC (for human plasma kallikrein; Bachem, Bubendorf, Switzerland) and H-D-Val-Leu-Lys-AMC (for human plasmin; Bachem, Bubendorf, Switzerland). The initial velocities were monitored as changes in fluorescence intensity during 30 min on a Tecan microplate reader (Tecan infinite 200 pro, Tecan Trading AG, Switzerland) using black microfluor 96-well plate Nunc MicroWell (Thermo Fisher Scientific, Dreieich, Germany). The enzymatic reactions were performed at 25 °C under shacking with an excitation wavelength of 355 nm and an emission recording at 460 nm.
Apparent equilibrium constants Kiapps values were determined by non-linear regression analyses of Vi/V0 versus [I]0 using equation (2). The final Kis were subsequently determined by correcting for the competitive effect of the substrate [S]0 using equation (3). The kinetic constants Kms for the hydrolysis of fluorogenic substrate, catalysed by each protease, were determined by standard Michaelis-Menten equation. Values were determined using either OriginPro 8G software (OriginLab Corporation, Northamppton, MA, USA) or GraphPad Prism 8.0.0. software (GraphPad software, Inc., San Diego, California). […]

T1 sequence (P06869 180-433 limits assumed): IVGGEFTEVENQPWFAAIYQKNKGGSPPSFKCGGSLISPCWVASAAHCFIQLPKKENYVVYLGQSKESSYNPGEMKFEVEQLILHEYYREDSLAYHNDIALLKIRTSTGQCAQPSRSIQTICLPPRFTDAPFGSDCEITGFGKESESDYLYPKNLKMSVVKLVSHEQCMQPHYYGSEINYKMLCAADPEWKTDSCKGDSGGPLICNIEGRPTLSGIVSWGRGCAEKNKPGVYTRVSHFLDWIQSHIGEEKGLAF
T1 sequence (P06869 157-178 partner limits assumed): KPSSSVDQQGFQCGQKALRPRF

Molecule `CC(C)[C@@H]1NC(=O)CNC(=O)[C@@H]2CSCc3cc(cc(c3)CSC[C@@H](C(=O)NCC(N)=O)NC(=O)[C@H](CCC(=O)O)NC(=O)[C@H](CO)NC(=O)[C@@H]3CCCN3C(=O)[C@H](CC(=O)O)NC1=O)CSC[C@H](NC(=O)[C@H](C)N)C(=O)N[C@@H](CC(N)=O)C(=O)N[C@@H](CO)C(=O)N[C@@H](CCCCN)C(=O)N[C@@H](Cc1ccccc1)C(=O)N[C@@H](CO)C(=O)NCC(=O)N2` [UK978] (H-ACNSKFSGCGVDPSECG-NH2; linker 2-9-16 via TBMB) has a Ki of 1700 nM.

biological target: T2, human urokinase-type plasminogen activator (huPA) (Homo sapiens, UniProt P00749); test: huPA inhibition, fluorogenic enzyme activity assay (Z-Gly-Gly-Arg-AMC), Ki by Cheng-Prusoff; assay type: biochemical; conditions: 25 °C, pH 7.4, substrate 50 μM, mean ± S.E. of at least three measurements, read-out: Ki
T2 construct: (UPA-LMW, Molecular Innovations, Novi, MI, USA) 1.5 nM; purchased Molecular Innovations UPA-LMW
Protocol: bicyclic peptides. The activity assay was performed by incubating […] huPA with 50 μM fluorogenic substrate Z-Gly-Gly-Arg-AMC (50 μM; Bachem, Bubendorf, Switzerland) and […]
NaCl, 10 mM MgCl2, 1mM CaCl2, 0.1% w/v BSA, 0.01% v/v Triton-X100 and 5% v/v DMSO.
The measurements were performed on a Tecan microplate reader (Tecan infinite 200 pro, Tecan Trading AG, Switzerland) using black microfluor 96-well plate Nunc MicroWell, (Thermo Fisher Scientific, Dreieich, Germany) The enzymatic reactions were performed at 25 °C for 30 min, under shacking with an excitation wavelength of 355 nm and an emission recording at 460 nm. The initial velocities were monitored as changes in fluorescence intensity. The sigmoidal curves were fitted to the data using the following non-linear regression equation for the inhibitory dose-response curves with variable slope (2): […]
where x is the peptide concentration, y is the residual percentage of protease activity and p is the hill slope. Half maximum inhibitory concentration (IC50) values were derived from the fitted curves from GraphPad Prism 8 8.0.0. software (GraphPad software, Inc., San Diego, California). The final Ki was subsequently determined using the Cheng-Prusoff equation (3): […]
where Km (115 μM) is the Michaelis constant for the hydrolysis of Z-Gly-Gly-Arg-AMC catalysed by huPA which has been determined by standard Michaelis-Menten equation.
Values were determined using either OriginPro 8G software (OriginLab Corporation, Northamppton, MA, USA) or GraphPad Prism 8.0.0. software (GraphPad software, Inc., San […]
Recombinant production of the catalytic domain of human urokinase-type […]
The low molecular weight (LMW) human urokinase-type plasminogen activator (huPA) comprising the truncated 23 amino acid peptide fragment of chain A (Lys136-Lys158 in […]

`CC(C)[C@@H]1NC(=O)[C@H](Cc2ccc(O)cc2)NC(=O)[C@H](CCCNC(=N)N)NC(=O)[C@H](CO)NC(=O)[C@@H](NC(=O)[C@H](C)N)CSCc2cc3cc(c2)CSC[C@@H](C(=O)NCC(N)=O)NC(=O)[C@@H]2CCCN2C(=O)CNC(=O)CNC(=O)[C@H](CCCNC(=N)N)NC(=O)CNC(=O)[C@H](CCCNC(=N)N)NC(=O)[C@H](CSC3)NC(=O)[C@H](CC(=O)O)NC(=O)[C@H](C(C)C)NC1=O` [UK968] (H-ACSRYVVDCRGRGGPCG-NH2; linker 2-9-16 via TBMB) and `CC(C)[C@@H]1NC(=O)[C@H](Cc2ccc(O)cc2)NC(=O)[C@H](CCCNC(=N)N)NC(=O)[C@H](CC(=O)O)NC(=O)[C@@H](NC(=O)[C@H](C)N)CSCc2cc3cc(c2)CSC[C@@H](C(=O)NCC(N)=O)NC(=O)[C@@H]2CCCN2C(=O)CNC(=O)CNC(=O)[C@H](CCCNC(=N)N)NC(=O)CNC(=O)[C@H](CCCNC(=N)N)NC(=O)[C@H](CSC3)NC(=O)[C@H](CC(=O)O)NC(=O)[C@H](C(C)C)NC1=O` [UK969] (H-ACDRYVVDCRGRGGPCG-NH2; linker 2-9-16 via TBMB) are within error of each other in Ki: 5.5 ± 0.4 nM for the first, 5.3 ± 0.2 nM for the second.

`CC(C)[C@@H]1NC(=O)[C@H](Cc2c[nH]c3ccccc23)NC(=O)[C@H](CCCNC(=N)N)NC(=O)[C@H](CO)NC(=O)[C@@H](NC(=O)[C@H](C)N)CSCc2cc3cc(c2)CSC[C@@H](C(=O)NCC(N)=O)NC(=O)[C@@H]2CCCN2C(=O)CNC(=O)CNC(=O)[C@H](CCCNC(=N)N)NC(=O)CNC(=O)[C@H](CCCNC(=N)N)NC(=O)[C@H](CSC3)NC(=O)[C@H](CC(=O)O)NC(=O)[C@H]([C@@H](C)O)NC1=O` [UK972] (H-ACSRWVTDCRGRGGPCG-NH2; linker 2-9-16 via TBMB) and `CC(C)[C@@H]1NC(=O)[C@H](Cc2ccccc2)NC(=O)[C@H](CCCNC(=N)N)NC(=O)[C@H](CO)NC(=O)[C@@H](NC(=O)[C@H](C)N)CSCc2cc3cc(c2)CSC[C@@H](C(=O)NCC(N)=O)NC(=O)[C@@H]2CCCN2C(=O)CNC(=O)CNC(=O)[C@H](CCCNC(=N)N)NC(=O)CNC(=O)[C@H](CCCNC(=N)N)NC(=O)[C@H](CSC3)NC(=O)[C@H](CC(=O)O)NC(=O)[C@H]([C@@H](C)O)NC1=O` [UK973] (H-ACSRFVTDCRGRGGPCG-NH2; linker 2-9-16 via TBMB) are within 1.5-fold of each other in Ki: 14.8 nM for the first, 15.3 nM for the second.

Compared with `CC(C)[C@@H]1NC(=O)CNC(=O)[C@@H]2CSCc3cc(cc(c3)CSC[C@@H](C(=O)NCC(N)=O)NC(=O)[C@H](CO)NC(=O)CNC(=O)[C@@H]3CCCN3C(=O)[C@H](CC(=O)O)NC1=O)CSC[C@H](NC(=O)[C@H](C)N)C(=O)N[C@@H](CC(N)=O)C(=O)N[C@@H](CO)C(=O)N[C@@H](CCCCN)C(=O)N[C@@H](Cc1ccccc1)C(=O)N[C@@H](CO)C(=O)NCC(=O)N2` [UK974] (H-ACNSKFSGCGVDPGSCG-NH2; linker 2-9-16 via TBMB), `CC(C)[C@@H]1NC(=O)CNC(=O)[C@@H]2CSCc3cc(cc(c3)CSC[C@@H](C(=O)NCC(N)=O)NC(=O)[C@H](CC(=O)O)NC(=O)CNC(=O)[C@@H]3CCCN3C(=O)[C@H](CC(=O)O)NC1=O)CSC[C@H](NC(=O)[C@H](C)N)C(=O)N[C@@H](CC(N)=O)C(=O)N[C@@H](CO)C(=O)N[C@@H](CCCCN)C(=O)N[C@@H](Cc1ccccc1)C(=O)N[C@@H](CO)C(=O)NCC(=O)N2` [UK975] (H-ACNSKFSGCGVDPGDCG-NH2; linker 2-9-16 via TBMB) is 2.4-fold higher in Ki: 363 nM for the first, 874 nM for the second.

Going from `CC(C)[C@@H]1NC(=O)CNC(=O)[C@@H]2CSCc3cc(cc(c3)CSC[C@@H](C(=O)NCC(N)=O)NC(=O)[C@H](CC(=O)O)NC(=O)[C@H](CO)NC(=O)[C@@H]3CCCN3C(=O)[C@H](CC(=O)O)NC1=O)CSC[C@H](NC(=O)[C@H](C)N)C(=O)N[C@@H](CC(N)=O)C(=O)N[C@@H](CO)C(=O)N[C@@H](CCCCN)C(=O)N[C@@H](Cc1ccccc1)C(=O)N[C@@H](CO)C(=O)NCC(=O)N2` [UK976] (H-ACNSKFSGCGVDPSDCG-NH2; linker 2-9-16 via TBMB) to `CC(C)[C@@H]1NC(=O)CNC(=O)[C@@H]2CSCc3cc(cc(c3)CSC[C@@H](C(=O)NCC(N)=O)NC(=O)[C@H](CCC(=O)O)NC(=O)[C@H](CO)NC(=O)[C@@H]3CCCN3C(=O)[C@H](CC(=O)O)NC1=O)CSC[C@H](NC(=O)[C@H](C)N)C(=O)N[C@@H](CC(N)=O)C(=O)N[C@@H](CO)C(=O)N[C@@H](CCCCN)C(=O)N[C@@H](Cc1ccccc1)C(=O)N[C@@H](CO)C(=O)NCC(=O)N2` [UK978] (H-ACNSKFSGCGVDPSECG-NH2; linker 2-9-16 via TBMB), the Ki falls from 119 ± 0.9 nM to 72 ± 0.7 nM (1.7-fold).

`CC(C)[C@@H]1NC(=O)CNC(=O)[C@@H]2CSCc3cc(cc(c3)CSC[C@@H](C(=O)NCC(N)=O)NC(=O)[C@H](CCC(=O)O)NC(=O)CNC(=O)[C@@H]3CCCN3C(=O)[C@H](CC(=O)O)NC1=O)CSC[C@H](NC(=O)[C@H](C)N)C(=O)N[C@@H](CC(N)=O)C(=O)N[C@@H](CO)C(=O)N[C@@H](CCCCN)C(=O)N[C@@H](Cc1ccccc1)C(=O)N[C@@H](CO)C(=O)NCC(=O)N2` [UK977] (H-ACNSKFSGCGVDPGECG-NH2; linker 2-9-16 via TBMB) showed a Ki of 157 ± 1.1 nM.
